# Laboratory results: patent publication US20080200454A1, “CARBON-LINKED TETRAHYDRO-PYRAZOLO-PYRIDINE MODULATORS OF CATHEPSIN S” (priority 2007, published 2008)
# Target: Recombinant human cathepsin S (CatS) (Homo sapiens, UniProt P25774)
# Assay: Recombinant human cathepsin S (CatS) inhibition assay, fluorogenic substrate Z-Valine-Valine-Arginine-AMC;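 note: Baculovirus-expressed CatS in pH 5.0 sodium acetate buffer with DTT and NaCl, fluorescence read each minute over 20 min, inhibition derived from rate slope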
# Settings: not given
# Recombinant human cathepsin S (CatS), sequence (P25774 115-331): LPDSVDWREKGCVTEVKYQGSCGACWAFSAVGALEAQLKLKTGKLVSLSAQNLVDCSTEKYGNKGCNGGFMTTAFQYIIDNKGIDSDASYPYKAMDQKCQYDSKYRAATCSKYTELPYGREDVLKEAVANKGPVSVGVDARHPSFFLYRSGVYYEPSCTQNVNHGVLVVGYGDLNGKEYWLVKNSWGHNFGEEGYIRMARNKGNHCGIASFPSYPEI
row,SMILES,IC50 [nM]
1,"NC(=O)N1CCc2c(c(-c3ccc(Cl)c(C#Cc4ccc(C(=O)NC[C@@H]5CCCN5)cc4)c3)nn2CCCN2CCSCC2)C1 [Example 609, 3-{4-Chloro-3-[(4-{[(2S)-pyrrolidin-2-ylmethyl]carbamoyl}phenyl)ethynyl]phenyl}-1-(3-thiomorpholin-4-ylpropyl)-1,4,6,7-tetrahydro-5H-pyrazolo[4,3-c]pyridine-5-carboxamide]",70
2,"CS(=O)(=O)N1CCc2c(c(-c3ccc(C(F)(F)F)c(CCCNS(=O)(=O)c4ccccc4)c3)nn2CC(O)CN2CCOCC2)C1 (centres unmarked) [Example 306, N-(3-{5-[1-(2-Hydroxy-3-morpholin-4-ylpropyl)-5-(methylsulfonyl)-4,5,6,7-tetrahydro-1H-pyrazolo[4,3-c]pyridin-3-yl]-2-(trifluoromethyl)phenyl}propyl)benzenesulfonamide]",3220
3,"CS(=O)(=O)N1CCc2c(c(-c3ccc(Cl)c(C#Cc4ccc(CNCCc5ccccc5)cc4)c3)nn2CCCN2CCOCC2)C1 [Example 316, N-{[4-({2-Chloro-5-[5-(methylsulfonyl)-1-(3-morpholin-4-ylpropyl)-4,5,6,7-tetrahydro-1H-pyrazolo[4,3-c]pyridin-3-yl]phenyl}ethynyl)phenyl]methyl}-2-phenylethanamine]",580
4,"CS(=O)(=O)N1CCc2c(c(-c3ccc(Cl)c(CCCCNC4CCCC4)c3)nn2CCCN2CCC(N3CCCC3=O)CC2)C1 [Example 115, 1-[1-(3-{3-[4-Chloro-3-(4-cyclopentylamino-butyl)-phenyl]-5-methanesulfonyl-4,5,6,7-tetrahydro-pyrazolo[4,3-c]pyridin-1-yl}-propyl)-piperidin-4-yl]-pyrrolidin-2-one]",1690
5,"CS(=O)(=O)N1CCc2c(c(-c3ccc(Cl)c(CCc4ccc(Cl)cc4)c3)nn2CC(O)CN2CCC3(CCNC3=O)CC2)C1 (centres unmarked) [Example 148, 8-[3-(3-{4-Chloro-3-[2-(4-chloro-phenyl)-ethyl]-phenyl}-5-methanesulfonyl-4,5,6,7-tetrahydro-pyrazolo[4,3-c]pyridin-1-yl)-2-hydroxy-propyl]-2,8-diaza-spiro[4.5]decan-1-one]",80

# Same assay, conditions: CatS IC50
row,SMILES,IC50 [nM]
1,"CS(=O)(=O)N1CCc2c(c(-c3ccc(Cl)c(C#Cc4ccc(CNCc5ccc(Cl)cc5)cc4)c3)nn2CCCN2CCN(C3CC3)CC2)C1 [Example 388, 1-{4-[(2-Chloro-5-{1-[3-(4-cyclopropylpiperazin-1-yl)propyl]-5-(methylsulfonyl)-4,5,6,7-tetrahydro-1H-pyrazolo[4,3-c]pyridin-3-yl}phenyl)ethynyl]phenyl}-N-[(4-chlorophenyl)methyl]methanamine]",60
2,"CC1CCN(CCCn2nc(-c3ccc(Cl)c(C#Cc4ccc(CNCc5ccc(Cl)cc5)cc4)c3)c3c2CCN(S(C)(=O)=O)C3)CC1 [Example 344, 1-{4-[(2-Chloro-5-{1-[3-(4-methylpiperidin-1-yl)propyl]-5-(methylsulfonyl)-4,5,6,7-tetrahydro-1H-pyrazolo[4,3-c]pyridin-3-yl}phenyl)ethynyl]phenyl}-N-[(4-chlorophenyl)methyl]methanamine]",60
3,"NC(=O)N1CCc2c(c(-c3ccc(Cl)c(C#Cc4ccc(Cl)c(C(=O)N5CCCC5)c4)c3)nn2CCCN2CCSCC2)C1 [Example 570, 3-(4-Chloro-3-{[4-chloro-3-(pyrrolidin-1-ylcarbonyl)phenyl]ethynyl}phenyl)-1-(3-thiomorpholin-4-ylpropyl)-1,4,6,7-tetrahydro-5H-pyrazolo[4,3-c]pyridine-5-carboxamide]",260
4,"CNCCCNC(=O)c1ccc(C#Cc2cc(-c3nn(CCCN4CCCCC4)c4c3CN(S(C)(=O)=O)CC4)ccc2Cl)cc1 [Example 614, 4-({2-Chloro-5-[5-(methylsulfonyl)-1-(3-piperidin-1-ylpropyl)-4,5,6,7-tetrahydro-1H-pyrazolo[4,3-c]pyridin-3-yl]phenyl}ethynyl)-N-[3-(methylamino)propyl]benzamide]",60
5,"CS(=O)(=O)N1CCc2c(c(-c3ccc(Cl)c(C#Cc4c[nH]cn4)c3)nn2CCCN2CCOCC2)C1 [Example 441, 3-[4-Chloro-3-(1H-imidazol-4-ylethynyl)phenyl]-5-(methylsulfonyl)-1-(3-morpholin-4-ylpropyl)-4,5,6,7-tetrahydro-1H-pyrazolo[4,3-c]pyridine]",3060
6,"NC(=O)C(=O)N1CCc2c(c(-c3ccc(Cl)c(C#Cc4ccc(Cl)c(C(=O)N5CCNCC5)c4)c3)nn2CCCN2CCSCC2)C1 [Example 568, 2-[3-(4-Chloro-3-{[4-chloro-3-(piperazin-1-ylcarbonyl)phenyl]ethynyl}phenyl)-1-(3-thiomorpholin-4-ylpropyl)-1,4,6,7-tetrahydro-5H-pyrazolo[4,3-c]pyridin-5-yl]-2-oxoacetamide]",140
7,"NC(=O)N1CCc2c(c(-c3ccc(Cl)c(C#Cc4ccc(CNCc5ccc(Cl)cc5)cc4)c3)nn2CCCN2CCCC2)C1 [Example 453, 3-(4-Chloro-3-{[4-({[(4-chlorophenyl)methyl]amino}methyl)phenyl]ethynyl}phenyl)-1-(3-pyrrolidin-1-ylpropyl)-1,4,6,7-tetrahydro-5H-pyrazolo[4,3-c]pyridine-5-carboxamide]",140
8,"CS(=O)(=O)N1CCc2c(c(-c3ccc(Cl)c(C#Cc4ccc(Cl)cc4)c3)nn2CCCN2CCOCC2)C1 [Example 28, 3-[4-Chloro-3-(4-chloro-phenylethynyl)-phenyl]-5-methanesulfonyl-1-(3-morpholin-4-yl-propyl)-4,5,6,7-tetrahydro-1H-pyrazolo[4,3-c]pyridine]",200
9,"CC(C)CC#Cc1cc(-c2nn(C[C@@H](O)CN3CCC(C4CCNCC4)CC3)c3c2CN(S(C)(=O)=O)CC3)ccc1Cl [Example 239, (2S)-1-(4,4′-Bipiperidin-1-yl)-3-{3-[4-chloro-3-(4-methylpent-1-yn-1-yl)phenyl]-5-(methylsulfonyl)-4,5,6,7-tetrahydro-1H-pyrazolo[4,3-c]pyridin-1-yl}propan-2-ol]",610
10,"COc1ccc(CNCc2ccc(C#Cc3cc(-c4nn(CCCN5CCSCC5)c5c4CN(C(N)=O)CC5)ccc3Cl)cc2)cc1 [Example 538, 3-[4-Chloro-3-({4-[({[4-(methyloxy)phenyl]methyl}amino)methyl]phenyl}ethynyl)phenyl]-1-(3-thiomorpholin-4-ylpropyl)-1,4,6,7-tetrahydro-5H-pyrazolo[4,3-c]pyridine-5-carboxamide]",110
11,"COc1cccc(CNCc2ccc(C#Cc3cc(-c4nn(CCCN5CCSCC5)c5c4CN(C(N)=O)CC5)ccc3Cl)cc2)c1 [Example 534, 3-[4-Chloro-3-({4-[({[3-(methyloxy)phenyl]methyl}amino)methyl]phenyl}ethynyl)phenyl]-1-(3-thiomorpholin-4-ylpropyl)-1,4,6,7-tetrahydro-5H-pyrazolo[4,3-c]pyridine-5-carboxamide]",90
12,"CS(=O)(=O)N1CCc2c(c(-c3ccc(Cl)c(C#Cc4ccc5c(c4)CN[C@@H](C(N)=O)C5)c3)nn2CCCN2CCOCC2)C1 [Example 197, (3R)-7-({2-Chloro-5-[5-(methylsulfonyl)-1-(3-morpholin-4-ylpropyl)-4,5,6,7-tetrahydro-1H-pyrazolo[4,3-c]pyridin-3-yl]phenyl}ethynyl)-1,2,3,4-tetrahydroisoquinoline-3-carboxamide]",200
